The values below come from US20220348590A1, “CYCLOOXYGENASE-2 INHIBITORS AND USES THEREOF” (The Board Institute, Inc., priority 2019, published 2022).

The structures appear in SMILES notation.

For this test, the target named is T1, COX2 (Rattus norvegicus, UniProt P35355).
T1 construct: in-vitro autoradiography in rat brain slices; from tissue; host or cells: rat brain slices
T1 sequence (P35355 18-604): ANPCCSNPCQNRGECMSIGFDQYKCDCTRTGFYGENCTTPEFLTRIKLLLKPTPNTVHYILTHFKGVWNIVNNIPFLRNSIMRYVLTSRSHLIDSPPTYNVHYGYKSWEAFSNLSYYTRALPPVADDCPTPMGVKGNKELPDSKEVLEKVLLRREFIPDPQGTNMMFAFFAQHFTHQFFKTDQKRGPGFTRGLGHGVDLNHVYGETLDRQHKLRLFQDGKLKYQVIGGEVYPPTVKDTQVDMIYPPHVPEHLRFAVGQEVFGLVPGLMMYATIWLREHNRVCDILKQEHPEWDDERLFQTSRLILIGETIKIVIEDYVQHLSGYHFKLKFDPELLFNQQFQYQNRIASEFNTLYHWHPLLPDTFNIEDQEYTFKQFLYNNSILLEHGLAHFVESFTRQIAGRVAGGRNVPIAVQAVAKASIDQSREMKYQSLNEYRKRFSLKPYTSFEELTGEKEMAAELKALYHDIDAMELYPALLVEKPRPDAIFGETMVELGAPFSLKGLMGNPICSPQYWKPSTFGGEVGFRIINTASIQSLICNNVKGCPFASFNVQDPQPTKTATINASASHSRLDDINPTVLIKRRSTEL
Briefly: in-vitro autoradiography in rat brain slices (self-block). It counts as binding. The source says:
Three ligands have been evaluated with in-vitro autoradiography in rat brain slices. Radiolabeling was accomplished via methylation of either a sulfinate precursor ([^11C]Rofecoxib), hydroxyl precursor ([^11C]MC1) or thiol precursor ([^11C]98) using [^11C]-methyl iodide and offers chemical flexibility for radiolabeling of future candidates. […] This translated into a ˜2-fold increase in COX2 specific binding in a rat brain slice in-vitro autoradiography. […] These properties enable us to better understand the contribution of potency and free fraction to the ligand's specific binding.
Three newly synthesized COX2 ligands were successfully radiolabeled using this strategy and first evaluated by in-vitro autoradiography in rat brain slices using self-block experiments (FIG. 5). […] [^11C]36 was also evaluated for specific binding using self-block experiments in human post-mortem brain tissues (globus pallidus) from three Huntington's disease (HD) patients (FIG. 6). COX2 protein levels were quantified using immunostaining and defined as high, medium and low, respectively.

As for `CS(=O)(=O)c1ccc(-c2cncc(NCc3cccs3)n2)cc1` [Compound 98], the “increase in COX2 specific binding” value (rat brain slice in-vitro autoradiography, compared to MC1) was ~2 fold. In addition, the specific binding result (rat brain slices in vitro autoradiography, self-block, compared to earlier tracers) is on record as “increase in specific binding”.
